US7314858B2, “Retrocyclins: antiviral and antimicrobial peptides” (priority 2001, dated 2008)
Where a SMILES comes first, the peptide text is derived from it. Bridges are numbered along the chain shown (N, C = ends).

How the values were obtained:
HIV-1 = details: cited from earlier work
HIV-1 IIIB = experiment: Activity of theta-defensins against HIV-1 IIIB (FIG. 21); assay type: cell-based
Source text: (§1) FIG. 21A-21B. Activity of theta-defensins against HIV-1 BAL; and HIV-1 IIIB.
(§2) The data shown in FIGS. 21A and 21B illustrate the activity of these retrocyclin-related peptides against two different strains of HIV-1, BAL and IIIB. […] BAL and IIIB are widely studied, laboratory adapted strains of HIV.

HIV-1 BAL = experiment: Activity of theta-defensins against HIV-1 BAL (FIG. 21); assay type: cell-based
Source text: as §1, §2

L. monocytogenes EGD = experiment: Two-stage radial diffusion assay; assay type: cell-based, Listeria monocytogenes
Description: (§3) FIG. 4. Effect of salt on antibacterial activity of circular minidefensins. Human retrocyclin and monkey RTD-1 were tested against our standard lab stains: E. coli ML-35p, P. aeruginosa MR 3007, L. monocytogenes EGD, and S. aureus 930918. The bars show MIC values±SEM values that resulted from 3-6 radial diffusion assays per organism and assay condition.
(§4) The effects of NaCl on the antimicrobial activity of retrocyclin and RTD-1, from two-stage radial diffusion assays, are compared in FIG. 4.

E. coli ML-35p = experiment: Two-stage radial diffusion assay; assay type: cell-based, Escherichia coli
Description: as §3, §4

HIV-1 strain IIIB = experiment: HIV-1 IIIB infection of H9 cells, p24 antigen ELISA; assay type: cell-based; details: H9 cells, IIIB (X4), peptide 10-20 μg/ml
Description: FIG. 1. Circular minidefensins reduce HIV-1 infection of H9 cells. HIV-I strain IIIB (MOI=10^−2) was incubated with 2.5×10^5 H9 cells in the presence or absence of 20 μg/ml RTD-1, RTD-2 or RTD-3. p24 antigen release was monitored by ELISA on days 3, 6, and 9. Assay sensitivity=10 pg/ml.
Immortalized CD4^+ H9 cells, which are permissive for infection with this strain, were maintained in RPMI supplemented with 10% heat-inactivated fetal calf serum (FCS), 10 mM HEPES, 2 mM glutamine, 100 U of penicillin/ml, and 10 μg of streptomycin/ml (R10 media). Cells (2.5×10^5/100 μl) were incubated with virus (multiplicity of infection (MOI)=10^−2) in the presence or absence of 20 μg/ml RTD-1, RTD-2 or RTD-3 for 3 hrs at 37° C./5% CO2. The cells were washed in R10 media, seeded in 48-well tissue culture plates in 1 ml R10 media, and incubated at 37° C./5% CO2 for 9 days. Aliquots of cell supernatant were removed at the specified time points and analyzed by a sensitive ELISA (DuPont NEN) that quantitates p24 antigen of HIV-1. The three circular rhesus minidefensins were similarly active, inhibiting HIV-1 by 100-1000 fold by 9 days post-inoculation (note the logarithmic scale).
Either HIV-1-permissive H9 cells were used as targets, or primary CD4^+ lymphocytes from HIV-1-seronegative donors generated from freshly purified peripheral blood mononuclear cells (PBMC) stimulated with a CD3-CD8 bispecific monoclonal antibody. After approximately 7 days, when 98% of these cells co-expressed CD3 and CD4, they were infected with HIV-1 with or without retrocyclin or other test peptide. These cells were maintained in RPMI containing 10% FCS supplemented with 2 mM glutamine, 100 U of penicillin/ml, 10 μg of streptomycin/ml, and 50 U of interleukin 2/ml (R10-50 media).
Mature retrocyclin was prepared by a three-step process.

MTT cytotoxicity assay = assay type: cell-based, human; details: human, H9 cells
Description: FIG. 8. Cytotoxicity of antimicrobial peptides against H9 cells. Retrocyclin, RTD-1 and PG-1 (a porcine-derived peptide with anti-HIV-1 activity) were tested for cytotoxicity using an MTT assay for cell proliferation. Note that the EC50 of Retrocyclin and RTD-1 were >100 μg/ml, concentrations well above their antiviral concentration.
Retrocyclin is not cytotoxic. […] Retrocyclin was not hemolytic for human erythrocytes.

indolicidin
concentration reproducibly virucidal against HIV-1 (HIV-1): 333 µg/mL

Orang-2: cyclic GVCRC ICGRG VCRCI CRR (SEQ ID NO:134) (cyclo(GVCRCICGRGVCRCICRR); disulfide (positions not given here); ring closure inferred; not fully specified (bridges))
potency against HIV-1 IIIB (HIV-1 IIIB): more potent than retrocyclins 1 and 2 and RC101 | potency against HIV-1 BAL (HIV-1 BAL): more potent than retrocyclins 1 and 2 and RC101

CC[C@H](C)[C@@H]1NC(=O)[C@@H]2CSSC[C@H](NC(=O)[C@H](CCCNC(=N)N)NC(=O)[C@@H]3CSSC[C@H](NC1=O)C(=O)N[C@@H]([C@@H](C)O)C(=O)N[C@@H](CCCNC(=N)N)C(=O)NCC(=O)N[C@@H](Cc1ccccc1)C(=O)N3)C(=O)N[C@@H](CC(C)C)C(=O)N[C@H]1CSSC[C@H](NC(=O)[C@H](C(C)C)NC(=O)CNC(=O)[C@H](CCCNC(=N)N)NC(=O)[C@H](CCCNC(=N)N)NC1=O)C(=O)N[C@@H](CCCNC(=N)N)C(=O)N2 [RTD-1, reference compound] (cyclo(GFCRCLCRRGVCRCICTR); disulfide 3-16, 5-14, 7-12)
effect of salt on antimicrobial activity (L. monocytogenes EGD; hypersalinity (175 mM NaCl)): only modestly inhibitory | antimicrobial activity (L. monocytogenes EGD; physiological (100 mM) NaCl): strong activity | effect of salt on antimicrobial activity (E. coli ML-35p; hypersalinity (175 mM NaCl)): only modestly inhibitory | antimicrobial activity (E. coli ML-35p; physiological (100 mM) NaCl): strong activity | inhibition of HIV-1 replication (p24) (HIV-1 strain IIIB): protective to a lesser extent than retrocyclin | EC50 (MTT cytotoxicity assay): > 100 µg/mL
